This note sets out measurements from PubChem BioAssay (NCI).

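Protocol summary: plate cells (96-well), add compound at 5 concentrations, incubate 48 h, interpolate endpoints linearly. At the TGI there is no net growth.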 A value given as a limit tells only on which side of the number the result lay.

Some test systems named below: SNB-19 CNS; OVCAR-3 ovarian; EKVX NSCLC; OVCAR-5 ovarian; SNB-75 CNS; ACHN renal; CCRF-CEM leukemia; NCI/ADR-RES ovarian; HCT-116 colon; TK-10 renal; PC-3 prostate.
Common to all, as to assay: NCI tumour cell line growth inhibition, 48 h

For the compound `OCSc1nn(CO)c(=S)s1`, the TGI in the assay with SNB-19 CNS is 59.6 µM; in the assay on OVCAR-3 ovarian, 48.4 µM; in the assay with EKVX NSCLC, 89.3 µM; in the assay with OVCAR-5 ovarian, above 100 µM; in the assay on SNB-75 CNS, 67.1 µM; in the assay on ACHN renal, 68.1 µM. The TGI in the assay on CCRF-CEM leukemia was 55.1 µM; in the assay with NCI/ADR-RES ovarian, 45.1 µM; in the assay on HCT-116 colon, 55.4 µM; in the assay with TK-10 renal, above 100 µM; with PC-3 prostate, 59.6 µM.
As for `CCOP(=O)(OCC)/C(C#N)=C/c1c(C)[nH]c2ccccc12`, the TGI with SNB-19 CNS, with OVCAR-3 ovarian, with EKVX NSCLC, in the assay on OVCAR-5 ovarian, with SNB-75 CNS and in the assay with ACHN renal was above 100 µM throughout. For the same compound, the TGI with CCRF-CEM leukemia, with NCI/ADR-RES ovarian, with HCT-116 colon, in the assay on TK-10 renal and in the assay with PC-3 prostate was above 100 µM throughout.
